These are literature values, as cited in article PMC11011029, “Design and Preclinical Evaluation of a Novel Prostate-Specific Membrane Antigen Radioligand Modified with a Transthyretin Binder” (Cancers, 2024).

For data set [1] the following is noted: undiluted blood plasma.
On the set-up of data set [2]: method as in PMID 29684274. The conditions noted are these: after 24 h incubation, same experimental conditions.
The test system of data set [3] is PC-3 PIP/flu tumor-bearing mice. The conditions noted are these: 24 h p.i.
Another data set deals with T1, PSMA (Homo sapiens, UniProt Q04609).
T1 construct: expressed in transfected cells; host or cells: PC-3 PIP cells (from Prof. Martin Pomper, Johns Hopkins)
More on the design: method as in PMID 32042329. Conditions: read-out: PSMA-binding affinity KD.

T1 sequence (Q04609 whole entry): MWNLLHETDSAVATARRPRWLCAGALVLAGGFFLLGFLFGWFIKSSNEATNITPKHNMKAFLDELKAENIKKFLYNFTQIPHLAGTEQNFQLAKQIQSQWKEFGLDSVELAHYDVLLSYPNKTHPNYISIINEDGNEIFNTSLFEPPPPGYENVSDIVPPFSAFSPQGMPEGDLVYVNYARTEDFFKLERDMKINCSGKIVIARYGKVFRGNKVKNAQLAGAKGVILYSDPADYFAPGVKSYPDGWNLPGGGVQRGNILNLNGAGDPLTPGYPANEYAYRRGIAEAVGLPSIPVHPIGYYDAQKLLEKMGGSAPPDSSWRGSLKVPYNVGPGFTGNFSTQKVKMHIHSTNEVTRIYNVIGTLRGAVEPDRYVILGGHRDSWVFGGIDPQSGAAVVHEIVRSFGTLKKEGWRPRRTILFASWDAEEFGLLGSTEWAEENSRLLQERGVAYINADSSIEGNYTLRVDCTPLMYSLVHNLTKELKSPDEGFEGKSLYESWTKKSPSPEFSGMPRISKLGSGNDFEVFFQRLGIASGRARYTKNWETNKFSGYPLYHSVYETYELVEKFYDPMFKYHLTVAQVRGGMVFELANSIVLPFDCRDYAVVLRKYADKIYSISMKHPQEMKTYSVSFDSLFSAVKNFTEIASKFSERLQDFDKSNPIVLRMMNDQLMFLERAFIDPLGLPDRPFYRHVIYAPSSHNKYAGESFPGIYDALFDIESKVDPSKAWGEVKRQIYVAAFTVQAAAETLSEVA

Broadly, the Kd is a measure of binding affinity in units of concentration. A word on the logD: it is lipophilicity at a set pH, counting ionised and neutral species. Regarding [^177Lu]Lu-PSMA-617, the logD is listed as −4.4. Besides, in data set [1], the “fraction bound to serum proteins” value is listed as 59 ± 1%. The intact radioligand in data set [2] is given as less than 2%. Besides, the “uptake in PC-3 PIP xenografts” value in data set [3] was 37 ± 6 % IA/g. The Kd at PSMA was 13 ± 1 nM.
